According to patent US20260209214A1, “LSD1 MODULATORS” (RECURSION PHARMACEUTICALS, INC., priority 2022, published 2026):

molecular target: Recombinant human LSD1 (Homo sapiens, UniProt O60341); test: LSD1 inhibition assay (HTRF LSD1 Histone H3K4 mono-demethylation assay, me1->me0); type: biochemical; settings: 20 nM recombinant human LSD1, 95 nM H3K4(me1) biotinylated peptide, 15 min preincubation, 60 min at 25° C., read-out: LSD1 inhibition IC50 (nM range)
Method in brief: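 Recombinant human LSD1 (20 nM) pre-incubated 15 min with 10 semi-log compound doses, then 95 nM biotinylated H3K4me1 peptide for 60 min at 25 °C in pH 8.5 Tris/NaCl buffer with 10 μM FAD, 1 mM DTT. HTRF me0-antibody read after 90 min; IC50 from 4-parameter fit.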

Row | SMILES | IC50 [nM]
1 | CC1(C)CN(c2ccc(CN3[C@@H]4CC[C@H]3[C@@H](N)C4)cc2-c2ccc(C#N)c(F)c2)C1 (racemic) [Example 206, 5'-{[(1S,2S,4R)-2-amino-7-azabicyclo[2.2.1]heptan-7-yl]methyl}-2'-(3,3-dimethylazetidin-1-yl)-3-fluoro-[1,1'-biphenyl]-4-carbonitrile] | 10 to 25
2 | N#Cc1ccc(-c2cccc(CC3CNCCO3)c2-c2ccno2)cc1F (stereo not drawn) [Example 16, 3-fluoro-3′-[(morpholin-2-yl)methyl]-2′-(1,2-oxazol-5-yl)-[1,1′-biphenyl]-4-carbonitrile] | 10 to 25
3 | Cc1cccnc1-c1ccc(CN2[C@@H]3CC[C@H]2[C@@H](N)C3)cc1-c1ccc(C#N)c(F)c1 (racemic) [Example 257, 5'-{[(1S,2S,4R)-2-amino-7-azabicyclo[2.2.1]heptan-7-yl]methyl}-3-fluoro-2'-(3-methylpyridin-2-yl)-[1,1'-biphenyl]-4-carbonitrile] | 10 to 25
4 | Cc1ncc(-c2c(CC3CNCCO3)cccc2-c2ccc(C#N)c(F)c2)o1 (stereo not drawn) [Example 69, 3-fluoro-2′-(2-methyl-1,3-oxazol-5-yl)-3′-[(morpholin-2-yl)methyl]-[1,1′-biphenyl]-4-carbonitrile] | 100 to 1000
5 | N#Cc1ccc(-c2cc(CN3[C@@H]4CC[C@H]3[C@@H](N)C4)ccc2OCCC(F)F)cc1F (racemic) [Example 315, 5'-{[(1S,2S,4R)-2-amino-7-azabicyclo[2.2.1]heptan-7-yl]methyl}-2'-(3,3-difluoropropoxy)-3-fluoro-[1,1'-biphenyl]-4-carbonitrile] | < 10
6 | N#Cc1ccc(-c2cc(CN3[C@@H]4CC[C@H]3[C@@H](N)C4)ccc2OCC2CC2)cc1F (racemic) [Example 311, 5'-{[(1S,2S,4R)-2-amino-7-azabicyclo[2.2.1]heptan-7-yl]methyl}-2'-(cyclopropylmethoxy)-3-fluoro-[1,1'-biphenyl]-4-carbonitrile] | 10 to 25
7 | N#Cc1ccc(-c2cccc(CN3[C@@H]4CC[C@H]3[C@@H](N)C4)c2-c2ccsc2)cc1F (racemic) [Example 244, 3'-{[(1S,2S,4R)-2-amino-7-azabicyclo[2.2.1]heptan-7-yl]methyl}-3-fluoro-2'-(thiophen-3-yl)-[1,1'-biphenyl]-4-carbonitrile] | 25 to 100
8 | N#Cc1ccc(-c2cccc(CN3CC4CCC(C3)N4)c2C2CC2)cc1F [Example 210, 2'-cyclopropyl-3'-({3,8-diazabicyclo[3.2.1]octan-3-yl}methyl)-3-fluoro-[1,1'-biphenyl]-4-carbonitrile] | 10 to 25
9 | COc1ccc(-c2ccc(CN3[C@@H]4CC[C@H]3[C@@H](N)C4)cc2-c2ccc(C#N)c(F)c2)cc1F (racemic) [Example 222, 4-(4-{[(1S,2S,4R)-2-amino-7-azabicyclo[2.2.1]heptan-7-yl]methyl}-3'-fluoro-4'-methoxy-[1,1'-biphenyl]-2-yl)-2-fluorobenzonitrile] | 10 to 25
10 | N#Cc1ccc(-c2cc(CN3[C@@H]4CC[C@H]3[C@@H](N)C4)ccc2N2CCC3(CCCO3)CC2)cc1F (racemic) [Example 224, 5'-{[(1S,2S,4R)-2-amino-7-azabicyclo[2.2.1]heptan-7-yl]methyl}-3-fluoro-2'-{1-oxa-8-azaspiro [4.5]decan-8-yl}-[1,1'-biphenyl]-4-carbonitrile] | 10 to 25
11 | N#Cc1ccc(-c2cccc(CC3CNCCO3)c2-c2cocn2)cc1F (stereo not drawn) [Example 92, 3-fluoro-3′-[(morpholin-2-yl)methyl]-2′-(1,3-oxazol-4-yl)-[1,1′-biphenyl]-4-carbonitrile] | 100 to 1000
12 | N#Cc1ccc(-c2cccc(CN3[C@@H]4CC[C@H]3[C@@H](N)C4)c2OCC2CC2)cc1F (racemic) [Example 245, 3'-{[(1S,2S,4R)-2-amino-7-azabicyclo[2.2.1]heptan-7-yl]methyl}-2'-(cyclopropylmethoxy)-3-fluoro-[1,1'-biphenyl]-4-carbonitrile] | 25 to 100
13 | N#Cc1ccc(-c2cccc(C[C@@H]3CNCCO3)c2-c2ccns2)cc1 (single isomer, unassigned) [Example 11] | 10 to 25

Second part, the molecule after the results:

Row | IC50 [nM] | SMILES
14 | > 1000 | N#Cc1ccc(-c2cc(CC3CNCCO3)ccc2NCc2cnn3c2CCCC3)cc1F (stereo not drawn) [Example 117, 3-fluoro-5′-[(morpholin-2-yl)methyl]-2′-[{{4H,5H,6H,7H-pyrazolo[1,5-a]pyridin-3-yl}methyl)amino]-[1,1′-biphenyl]-4-carbonitrile]
15 | 10 to 25 | Cn1nc2ccc(-c3ccc(CN4C[C@@]5(N)CC[C@@H]4C5)cc3-c3ccc(C#N)c(F)c3)cc2c1Cl [Example 233, 5'-{[(1R,4R)-4-amino-2-azabicyclo[2.2.1]heptan-2-yl]methyl}-2'-(3-chloro-2-methyl-2H-indazol-5-yl)-3-fluoro-[1,1'-biphenyl]-4-carbonitrile]
16 | 100 to 1000 | CN[C@H]1CCCCN(Cc2cccc(-c3ccc(C#N)c(F)c3)c2C2CC2)C1 [Example 272, 2'-cyclopropyl-3-fluoro-3'-{[(3S)-(methylamino)azepan-1-yl]methyl}-[1,1'-biphenyl]-4-carbonitrile]
17 | 100 to 1000 | N#Cc1ccc(-c2cc(CN3C[C@]4(N)CC[C@H]3C4)cc(N3CCCC3)c2)cc1F [Example 294, 4-[3-[[(1S,4S)-4-amino-2-azabicyclo[2.2.1]heptan-2-yl]methyl]-5-pyrrolidin-1-yl-phenyl]-2-fluoro-benzonitrile]
18 | 100 to 1000 | CNC1CCN(c2cccc(-c3ccc(C#N)c(F)c3)c2C2CC2)CC1 [Example 125, 2'-cyclopropyl-3-fluoro-3'-[4-(methylamino)piperidin-1-yl]-[1,1'-biphenyl]-4-carbonitrile]
19 | 100 to 1000 | Cc1cc(Oc2ccc(CC3CNCCO3)cc2-c2ccc(C#N)c(F)c2)ccn1 (stereo not drawn) [Example 121, 3-fluoro-2′-[(2-methylpyridin-4-yl)oxy]-5′-[(morpholin-2-yl)methyl]-[1,1′-biphenyl]-4-carbonitrile]
20 | 100 to 1000 | N#Cc1ccc(-c2cc(CC3CNCCO3)ccc2C2CC2)cc1F (stereo not drawn) [Example 141, 2′-cyclopropyl-3-fluoro-5′-[(morpholin-2-yl)methyl]-[1,1′-biphenyl]-4-carbonitrile]
21 | > 1000 | CC(c1ccc(N2CCC2)c(-c2ccc(C#N)c(F)c2)c1)C1CNCCO1 (stereo not drawn) [Example 144, 2′-(azetidin-1-yl)-3-fluoro-5′-[1-(morpholin-2-yl)ethyl]-[1,1′-biphenyl]-4-carbonitrile]
22 | 100 to 1000 | CC(C)(C)N1CCN(c2ccc(CC3CNCCO3)cc2-c2ccc(C#N)c(F)c2)CC1 (stereo not drawn) [Example 149, 2′-(4-tert-butylpiperazin-1-yl)-3-fluoro-5′-[(morpholin-2-yl)methyl]-[1,1′-biphenyl]-4-carbonitrile]
23 | > 1000 | N#Cc1ccc(-c2cc(CN3CC4(CNCCO4)C3)ccc2N2CCCC2)cc1F [Example 344, 3-fluoro-5'-({5-oxa-2,8-diazaspiro[3.5]nonan-2-yl}methyl)-2'-(pyrrolidin-1-yl)-[1,1'-biphenyl]-4-carbonitrile]
24 | < 10 | CC1(C)CN(Cc2cccc(-c3ccc(C#N)c(F)c3)c2-c2ccns2)C[C@@H]1N (single isomer, unassigned) [Example 197]
25 | > 1000 | N#Cc1ccc(-c2cc(CC3CNCCO3)ccc2C2COC2)cc1F (stereo not drawn) [Example 150, 3-fluoro-5'-[(morpholin-2-yl)methyl]-2'-(oxetan-3-yl)-[1,1'-biphenyl]-4-carbonitrile]
26 | > 1000 | N#Cc1ccc(-c2cc(CC3CN4CCC4CO3)ccc2N2CCC2)cc1F (stereo not drawn) [Example 160, 2′-(azetidin-1-yl)-3-fluoro-5′-({4-oxa-1-azabicyclo[4.2.0]octan-3-yl}methyl)-[1,1′-biphenyl]-4-carbonitrile]
27 | 25 to 100 | Cc1cc(CN2C[C@@H]3C[C@H]2CN3)c(Cl)c(-c2ccc(C#N)c(F)c2)c1 [Example 299, 2′-chloro-3'-{[(1S,4S)-2,5-diazabicyclo[2.2.1]heptan-2-yl]methyl}-3-fluoro-5'-methyl-[1,1'-biphenyl]-4-carbonitrile]
28 | 100 to 1000 | COCC1(O)CCCN(c2ccc(CC3CNCCO3)cc2-c2ccc(C#N)c(F)c2)CC1 (stereo not drawn) [Example 152, 3-fluoro-2′-[4-hydroxy-4-(methoxymethyl)azepan-1-yl]-5′-[(morpholin-2-yl)methyl]-[1,1′-biphenyl]-4-carbonitrile]
29 | 100 to 1000 | N#Cc1ccc(-c2cc(CC3CNCCO3)ccc2N2CC(c3ccc(C4CC4)nc3)C2)cc1F (stereo not drawn) [Example 101, 2′-[3-(6-cyclopropylpyridin-3-yl)azetidin-1-yl]-3-fluoro-5′-[(morpholin-2-yl)methyl]-[1,1′-biphenyl]-4-carbonitrile]
30 | 10 to 25 | N#Cc1ccc(-c2cccc(CN3C[C@]4(N)CC[C@H]3C4)c2C2CC2)cc1F [Example 193, 3'-{[(1S,4S)-4-amino-2-azabicyclo[2.2.1]heptan-2-yl]methyl}-2'-cyclopropyl-3-fluoro-[1,1'-biphenyl]-4-carbonitrile]
31 | 25 to 100 | N#Cc1ccc(-c2cccc(CN3CC4CCC3C(N)C4)c2C2CC2)cc1F (stereo not drawn) [Example 227, 3'-({6-amino-2-azabicyclo[2.2.2]octan-2-yl}methyl)-2'-cyclopropyl-3-fluoro-[1,1'-biphenyl]-4-carbonitrile]
32 | 100 to 1000 | CN1CCC2CN(Cc3cccc(-c4ccc(C#N)c(F)c4)c3C3CC3)CC21 (stereo not drawn) [Example 276, 2'-cyclopropyl-3-fluoro-3'-({1-methyl-octahydropyrrolo[2,3-c]pyrrol-5-yl}methyl)-[1,1'-biphenyl]-4-carbonitrile]
33 | 100 to 1000 | N#Cc1ccc(-c2cc(CC3CNCCO3)ccc2N2CCN(CC(F)F)CC2)cc1F (stereo not drawn) [Example 105, 2′-[4-(2,2-difluoroethyl)piperazin-1-yl]-3-fluoro-5′-[(morpholin-2-yl)methyl]-[1,1′-biphenyl]-4-carbonitrile]
